One experiment deals with PN4 tumors. Description: Flow cytometry for ESA and CD44 on treated PN4 tumors. Type of experiment: in vivo, NOD/SCID mice. The settings on record: PN4 tumors harvested day 85, 5 tumors pooled; control antibody 12.7%. As to the method: Control and treated tumors from the OMP-PN4 xenograft study described above were harvested at the end of the study (day 85). The tumors were processed and dissociated into single cells. Single cell suspensions derived from 5 tumors of each treatment group were pooled, and the pooled samples were then incubated on ice for 30 min with antibodies that bind mouse cells selectively (α-mouse CD45-biotin 1:200 dilution and rat α-mouse H2Kd-biotin 1:100 dilution, BioLegend, San Diego, Calif.), followed by addition of streptavidin-labeled magnetic beads (Invitrogen, Carlsbad, Calif.). Mouse cells were removed with the aid of a magnet. For analysis of human cell surface markers, the single tumor cell suspension was stained with anti-ESA (Biomeda, Hayward, Calif.) and anti-CD44 (BD Biosciences, San Jose, Calif.) antibodies which were directly conjugated to fluorochromes. Dead cells were excluded by using the viability dye DAPI. Flow cytometry was performed using a FACS Aria instrument (Becton Dickinson, Franklin Lakes, N.J.). Side scatter and forward scatter profiles were used to eliminate cell clumps.

The test system of the next experiment is PN21 pancreatic tumors. The experiment is described as follows: In vivo limiting dilution assay of treated PN21 tumors. Details: species or system NOD/SCID mice. To be noted: day 72, L-Calc. From the text: As described above in Example 3, a limiting dilution assays was used to assess the effect of treatment with FZD8-Fc alone or in combination with gemcitabine on solid tumor cancer stem cells in the PN21 pancreatic tumor model.
Control and treated tumors from the PN21 xenograft study described above were harvested at the end of the study. The tumors were processed and dissociated into single cells. […] The human cells in the suspension were harvested, counted, and stained for cell surface markers and appropriate cell doses (30, 90, and 270 cells) in FACS buffer were mixed in a 1:1 mixture with Matrigel and injected subcutaneously in NOD/SCID mice (10 mice per cell dose per treatment group). […]
At the desired time point, the percentage of mice with detectable tumors was determined in all groups injected with treated tumor cells and compared to the percentage of mice with detectable tumors in control treated cells. For example, the number of mice injected with 125 control antibody-treated tumor cells that have detectable tumors is determined and compared to the number of mice injected with 125 FZD8-Fc treated tumor cells that have detectable tumors.
On day 72 after injection of the cells, tumor take rates in the various groups were determined and the cancer stem cell frequency was calculated using L-Calc™ software (StemCell Technologies Inc.; www.stemcell.com).

Another experiment deals with PN4 pancreatic tumors. The experiment is described as follows: In vivo limiting dilution assay of treated PN4 tumors. Details: species or system NOD/SCID mice. To be noted: day 75 after injection of 30, 90, 270 cells, control 7 out of 30. From the text: Limiting dilution assays (LDA) can be used to assess the effect of therapeutic agents on solid tumor cancer stem cells and on the tumorigenicity of a tumor comprising the cancer stem cells. Such assays can be used to determine the frequency of cancer stem cells in tumors from animals treated with the FZD8-Fc fusion protein or other agent and to compare that frequency to the frequency of cancer stem cells in tumors from control animals. Control and treated tumors from the PN4 xenograft study described above were harvested at the end of the study (day 85). The tumors were processed and dissociated into single cells. […] The human cells in the suspension were harvested, counted, and stained for cell surface markers and appropriate cell doses (30, 90, and 270 cells) in FACS buffer were mixed in a 1:1 mixture with Matrigel and injected subcutaneously in NOD/SCID mice (10 mice per cell dose per treatment group). […] At the desired time point, the percentage of mice with detectable tumors was determined in all groups injected with FZD8-Fc-treated tumor cells and compared to the percentage of mice with detectable tumors in the controls. For example, the number of mice injected with 125 control antibody-treated tumor cells that have detectable tumors is determined and compared to the number of mice injected with 125 FZD8-Fc treated tumor cells that have detectable tumors. […]

Molecules are shown by their SMILES.

In the case of `Nc1ccn([C@@H]2O[C@H](CO)[C@@H](O)C2(F)F)c(=O)n1` [gemcitabine, reference compound], the “bulk tumor population expressing both ESA and CD44 at high levels (double positive population)” value in the experiment on PN4 tumors is given as 13.9%. Besides, in the experiment with PN21 pancreatic tumors, the “cancer stem cell frequency” value is recorded as “slightly increased”. Besides, the tumor take rate in the experiment with PN4 pancreatic tumors is recorded as 7 mice out of 30 mice.

(Values after patent US9157904B2, “Wnt antagonists and methods of treatment and screening” (OncoMed Pharmaceuticals, Inc., priority 2010, dated 2015).)
